Legend:
[1] = In situ brain/choroid plexus perfusion (10 or 30 minutes) with capillary depletion; settings: 30 min perfusion, not corrected for vascular space
[2] = In vivo pharmacokinetic brain distribution with [^3H(G)]pentamidine; set-up: species or system BALB/c mice; settings: 2 hours post-injection i.v., corrected for vascular/[^14C]sucrose space
[3] = previously published data; cited from earlier work

With [^3H(G)]pentamidine the “RTISSUE/PLASMA% (mean ± SEM) of [^3H]pentamidine” value (shortened to “RTISSUE/PLASMA% (mean ± SEM)”) ([1]; Choroid plexus, Control (15.7 nM pent)) was 1241.60 (± 92.86) %, the “RTISSUE/PLASMA% (mean ± SEM)” value ([1]; Corpus callosum, 0.01% F68 + 15.7 nM pent) was 2.02 (± 1.22) % and the “RTISSUE/PLASMA% (mean ± SEM)” value ([1]; Corpus callosum, 0.1% F68 + 15.7 nM pent) was 9.47 (± 0.94) %. The “RTISSUE/PLASMA% (mean ± SEM)” value ([1]; Corpus callosum, 0.5% F68 + 15.7 nM pent) was 15.72 (± 6.78) %, the “RTISSUE/PLASMA% (mean ± SEM)” value ([1]; Corpus callosum, Control (15.7 nM pent)) was 8.19 (± 1.97) % and the “RTISSUE/PLASMA% (mean ± SEM)” value ([1]; Frontal cortex, 0.01% F68 + 15.7 nM pent) was 9.00 (± 1.47) %. For the same substance, the “RTISSUE/PLASMA% (mean ± SEM)” value ([1]; Frontal cortex, 0.1% F68 + 15.7 nM pent) was 11.91 (± 1.35) %, the “RTISSUE/PLASMA% (mean ± SEM)” value ([1]; Frontal cortex, 0.5% F68 + 15.7 nM pent) was 17.54 (± 3.58) % and the “RTISSUE/PLASMA% (mean ± SEM)” value ([1]; Frontal cortex, Control (15.7 nM pent)) was 10.35 (± 0.84) %. For the same substance, the “RTISSUE/PLASMA% (mean ± SEM)” value ([1]; Hippocampus, 0.01% F68 + 15.7 nM pent) was 6.05 (± 1.20) %, the “RTISSUE/PLASMA% (mean ± SEM)” value ([1]; Hippocampus, 0.1% F68 + 15.7 nM pent) was 7.93 (± 1.20) % and the “RTISSUE/PLASMA% (mean ± SEM)” value ([1]; Hippocampus, 0.5% F68 + 15.7 nM pent) was 10.65 (± 2.55) %. For the same substance, the “RTISSUE/PLASMA% (mean ± SEM)” value ([1]; Hippocampus, Control (15.7 nM pent)) was 8.19 (± 0.30) %, the “RTISSUE/PLASMA% (mean ± SEM)” value ([1]; Homogenate (capillary depletion), 0.01% F68 + 15.7 nM pent) was 9.63 (± 0.93) % and the “RTISSUE/PLASMA% (mean ± SEM)” value ([1]; Homogenate (capillary depletion), 0.1% F68 + 15.7 nM pent) was 11.19 (± 1.62) %. The “RTISSUE/PLASMA% (mean ± SEM)” value ([1]; Homogenate (capillary depletion), 0.5% F68 + 15.7 nM pent) was 14.45 (± 3.93) %, the “RTISSUE/PLASMA% (mean ± SEM)” value ([1]; Homogenate (capillary depletion), Control (15.7 nM pent)) was 10.18 (± 0.92) % and the “RTISSUE/PLASMA% (mean ± SEM)” value ([1]; Hypothalamus, 0.01% F68 + 15.7 nM pent) was 8.90 (± 1.42) %. For the same substance, the “RTISSUE/PLASMA% (mean ± SEM)” value ([1]; Hypothalamus, 0.1% F68 + 15.7 nM pent) was 11.17 (± 1.42) %, the “RTISSUE/PLASMA% (mean ± SEM)” value ([1]; Hypothalamus, 0.5% F68 + 15.7 nM pent) was 18.73 (± 4.67) % and the “RTISSUE/PLASMA% (mean ± SEM)” value ([1]; Hypothalamus, Control (15.7 nM pent)) was 18.49 (± 4.17) %. For the same substance, the “RTISSUE/PLASMA% (mean ± SEM)” value ([1]; Occipital cortex, 0.01% F68 + 15.7 nM pent) was 8.80 (± 1.47) %, the “RTISSUE/PLASMA% (mean ± SEM)” value ([1]; Occipital cortex, 0.1% F68 + 15.7 nM pent) was 12.14 (± 1.62) % and the “RTISSUE/PLASMA% (mean ± SEM)” value ([1]; Occipital cortex, 0.5% F68 + 15.7 nM pent) was 15.85 (± 2.71) %. The “RTISSUE/PLASMA% (mean ± SEM)” value ([1]; Occipital cortex, Control (15.7 nM pent)) was 9.52 (± 1.08) %, the “RTISSUE/PLASMA% (mean ± SEM)” value ([1]; Pellet (capillary depletion), 0.01% F68 + 15.7 nM pent) was 18.16 (± 2.79) % and the “RTISSUE/PLASMA% (mean ± SEM)” value ([1]; Pellet (capillary depletion), 0.1% F68 + 15.7 nM pent) was 22.15 (± 4.44) %. The “RTISSUE/PLASMA% (mean ± SEM)” value ([1]; Pellet (capillary depletion), Control (15.7 nM pent)) was 16.45 (± 2.76) %, the “RTISSUE/PLASMA% (mean ± SEM)” value ([1]; Pineal gland, 0.01% F68 + 15.7 nM pent) was 341.30 (± 39.57) % and the “RTISSUE/PLASMA% (mean ± SEM)” value ([1]; Pineal gland, 0.1% F68 + 15.7 nM pent) was 342.95 (± 92.02) %. The “RTISSUE/PLASMA% (mean ± SEM)” value ([1]; Pineal gland, 0.5% F68 + 15.7 nM pent) was 525.94 (± 122.85) %, the “RTISSUE/PLASMA% (mean ± SEM)” value ([1]; Pineal gland, Control (15.7 nM pent)) was 664.25 (± 82.42) % and the “RTISSUE/PLASMA% (mean ± SEM)” value ([1]; Pituitary gland, 0.01% F68 + 15.7 nM pent) was 324.42 (± 44.06) %. For the same substance, the “RTISSUE/PLASMA% (mean ± SEM)” value ([1]; Pituitary gland, 0.1% F68 + 15.7 nM pent) was 434.10 (± 59.56) %, the “RTISSUE/PLASMA% (mean ± SEM)” value ([1]; Pituitary gland, 0.5% F68 + 15.7 nM pent) was 881.90 (± 170.25) % and the “RTISSUE/PLASMA% (mean ± SEM)” value ([1]; Pituitary gland, Control (15.7 nM pent)) was 394.51 (± 52.42) %. The “RTISSUE/PLASMA% (mean ± SEM)” value ([1]; Pons, 0.01% F68 + 15.7 nM pent) was 17.61 (± 3.70) %, the “RTISSUE/PLASMA% (mean ± SEM)” value ([1]; Pons, 0.1% F68 + 15.7 nM pent) was 20.36 (± 3.70) % and the “RTISSUE/PLASMA% (mean ± SEM)” value ([1]; Pons, 0.5% F68 + 15.7 nM pent) was 20.43 (± 5.67) %. For the same substance, the “RTISSUE/PLASMA% (mean ± SEM)” value ([1]; Pons, Control (15.7 nM pent)) was 15.16 (± 1.48) %, the “RTISSUE/PLASMA% (mean ± SEM)” value ([1]; Supernatant (capillary depletion), 0.01% F68 + 15.7 nM pent) was 3.77 (± 0.94) % and the “RTISSUE/PLASMA% (mean ± SEM)” value ([1]; Supernatant (capillary depletion), 0.1% F68 + 15.7 nM pent) was 6.63 (± 0.52) %. The “RTISSUE/PLASMA% (mean ± SEM)” value ([1]; Supernatant (capillary depletion), 0.5% F68 + 15.7 nM pent) was 6.45 (± 1.35) %, the “RTISSUE/PLASMA% (mean ± SEM)” value ([1]; Supernatant (capillary depletion), Control (15.7 nM pent)) was 5.54 (± 0.37) % and the “RTISSUE/PLASMA% (mean ± SEM)” value ([1]; Thalamus, 0.01% F68 + 15.7 nM pent) was 7.99 (± 1.06) %. The “RTISSUE/PLASMA% (mean ± SEM)” value ([1]; Thalamus, 0.1% F68 + 15.7 nM pent) was 11.08 (± 1.06) %, the “RTISSUE/PLASMA% (mean ± SEM)” value ([1]; Thalamus, 0.5% F68 + 15.7 nM pent) was 13.52 (± 3.10) % and the “RTISSUE/PLASMA% (mean ± SEM)” value ([1]; Thalamus, Control (15.7 nM pent)) was 9.94 (± 1.95) %. The “RTISSUE/PLASMA% (mean±SEM) Cerebellum” value [2] was 204.02 (± 35.28) %, the “RTISSUE/PLASMA% (mean±SEM) Choroid plexus” value [2] was 24666.66 (± 4928) % and the “RTISSUE/PLASMA% (mean±SEM) Homogenate” value [2] was 249.41 (± 35.59) %. The “RTISSUE/PLASMA% (mean±SEM) Left brain” value [2] was 152.29 (± 33.48) %, the “RTISSUE/PLASMA% (mean±SEM) Midbrain” value [2] was 181.18 (± 45.30) % and the “RTISSUE/PLASMA% (mean±SEM) Pellet” value [2] was 479.72 (± 72.50) %. The “RTISSUE/PLASMA% (mean±SEM) Pituitary gland” value [2] was 15053.41 (± 3598) %, the “RTISSUE/PLASMA% (mean±SEM) Right brain” value [2] was 115.52 (± 12.46) % and the “RTISSUE/PLASMA% (mean±SEM) Supernatant” value [2] was 123.35 (± 28.45) %. For the same substance, the “Accumulation corrected for vascular space, hippocampus” value [3] was 4.3%, the “Accumulation corrected for vascular space, hypothalamus” value [3] was 7.6% and the “Accumulation corrected for vascular space, pons” value [3] was 8.2%.

Source: article PMC8078842 (PLoS Neglected Tropical Diseases, 2021)
